Results published in patent EP4702986A1, “POLYPEPTIDE AND USE THEREOF” (Biocells (Beijing) Biotech Co., Ltd., priority 2023, dated 2024).
Where two headings read alike, the source gives them in different places. Numbered stars: 1 amine (or outer) side, 2 acyl side, 3 side chain; on linkers, the order of the positions; unused ones are H or OH. Bridge positions count the residues as written; N and C are the ends. Side chains are listed from the residue outwards. Ends that are not written are not given here. Peptide text beside a SMILES is read from it. * marks the point of attachment. C18 diacid = O=C(O)CCCCCCCCCCCCCCCCC(=O)*; γGlu = O=C(O)[C@H](CCC(=O)[*:2])N[*:1]; Fumaroyl = O=C(O)/C=C/C(=O)*; Suc = O=C(CCC(=O)[*:2])[*:1]; AEEA = NCCOCCOCC(=O)O

How the values were obtained:
[1] = Determination of half-lives of polypeptides (plasma, LC-MS); details: for half-life: C57 BL/6, mouse, plasma, iv; for AUClast 0-30 min: C57 BL/6 mice, i.v., dosage per compound 0.48, 0.96 or 1 mpk
human ETB receptor = target: T1, human ETB receptor (Homo sapiens, UniProt P24530); assay: Screening of polypeptides for activity on human ETB receptor (IP-One Gq kit, % of positive control IRL1620); format: cell-based
T1 construct: expressed in transfected cells; host or cells: 293T-17 cells, transient transfection
T1 sequence (P24530 27-442): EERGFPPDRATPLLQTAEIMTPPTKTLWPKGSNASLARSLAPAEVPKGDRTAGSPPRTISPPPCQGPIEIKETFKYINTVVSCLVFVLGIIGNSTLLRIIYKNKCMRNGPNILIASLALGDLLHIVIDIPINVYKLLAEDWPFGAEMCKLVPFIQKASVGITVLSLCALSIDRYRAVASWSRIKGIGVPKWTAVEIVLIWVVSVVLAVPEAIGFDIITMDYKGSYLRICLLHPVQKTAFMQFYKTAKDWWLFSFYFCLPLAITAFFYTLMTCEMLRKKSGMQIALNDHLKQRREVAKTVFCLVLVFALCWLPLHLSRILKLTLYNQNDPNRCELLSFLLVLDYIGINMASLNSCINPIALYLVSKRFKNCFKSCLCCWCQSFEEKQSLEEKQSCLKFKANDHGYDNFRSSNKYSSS
Protocol: 293T-17 cells were seeded at a density of 650,000 cells per well in a 6-well plate and cultured overnight in an incubator at 37°C and 5% CO2. Afterward, the cells were transfected with an expression vector, PCDNA3.1-hETB which contained a human ETB receptor gene, at a plasmid concentration of 2.5 µg per well. The cells were further cultured for 48 hours, and green fluorescence expression was observed under a fluorescence microscope. The cells were then digested with trypsin and counted. The activity of compounds on the human ETB receptor was determined with the IP-One Gq kit from Cisbio Bioassays. The cells were suspended in Stim Buffer provided in the kit and the cell suspension was added to a 96-well detection plate at 7 µL cell suspension (containing 30,000 cells) per well. The polypeptides to be screened for activity (prepared according to the Preparation Example of the invention) and polypeptide IRL1620 as positive control were dissolved in Stim B to be at a concentration of 2×, and 7 µL was added to the test cells, while 7 µL of PBS solution was added to the cells in the negative control wells. IRL1620 was used as the positive control polypeptide. The plate was sealed and incubated at 37°C for 1 hour in a cell culture incubator. Test wells, positive control wells, and PBS control wells were each added with 3 µL of IP1 d2 working solution and 3 µL of IP1 Tb cryptotate Antibody working solution. The plate was then sealed and incubated in the dark at room temperature (25°C±5°C) for 1 hour. The plate seal was removed, and the […] at 665 nm and 620 nm was measured with an ID5 microplate reader. The ratio of the acceptor emission signal to the donor emission signal, i.e., the value of (signal at 665 nm/signal at 620 nm)×10^4, was calculated for each well. With F1 representing the average value of values of signal at 665 nm/signal at 620 nm determined for the test sample at a specific concentration, F2 representing the average value of values of signal at 665 nm/signal at 620 nm determined for the positive control IRL1620 at the same concentration, and T1 representing the average value of values of signal at 665 nm/signal at 620 nm determined for the PBS negative control, the percentage of activity of the test polypeptide sample relative to the positive control sample IRL1620 is equal to (F1-T1)×100/(F2-T1). hETB sequence (NCBI accession number NM_000115.5).

human ETA receptor = target: T2, human ETA receptor (Homo sapiens, UniProt P25101); assay: Selectivity of polypeptides on human ETA receptor (IP-One Gq kit, % of positive control ET1); format: cell-based
T2 construct: expressed in transfected cells; host or cells: 293T-17 cells, transient transfection
T2 sequence (P25101 21-427): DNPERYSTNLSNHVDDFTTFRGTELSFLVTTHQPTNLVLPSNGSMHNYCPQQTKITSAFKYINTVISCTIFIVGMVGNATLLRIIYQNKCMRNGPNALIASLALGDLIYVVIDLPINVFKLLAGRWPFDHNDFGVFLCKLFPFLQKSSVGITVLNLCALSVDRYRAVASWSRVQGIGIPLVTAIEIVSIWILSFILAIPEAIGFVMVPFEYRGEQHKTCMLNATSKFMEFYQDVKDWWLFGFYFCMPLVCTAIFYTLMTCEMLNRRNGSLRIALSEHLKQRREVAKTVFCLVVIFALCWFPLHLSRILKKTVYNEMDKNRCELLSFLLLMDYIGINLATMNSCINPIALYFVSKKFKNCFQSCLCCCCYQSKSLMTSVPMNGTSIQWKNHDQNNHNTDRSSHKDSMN
Protocol: 293T-17 cells were seeded at a density of 650,000 cells per well in a 6-well plate and cultured overnight in an incubator at 37°C and 5% CO2. Afterward, the cells were transfected with an expression vector, PCDNA3.1-hETA which contained a human ETA receptor gene, at a plasmid concentration of 2.5 µg per well. The cells were further cultured for 48 hours, and green fluorescence expression was observed under a fluorescence microscope. The cells were then digested with trypsin and counted. The activity of compounds on the human ETA receptor was determined with the IP-One Gq kit from Cisbio Bioassays. The cells were suspended in Stim Buffer provided in the kit and the cell suspension was added to a 96-well detection plate at 7 µL cell suspension (containing 30,000 cells) per well. The polypeptides to be screened for activity (prepared according to the Preparation Example of the invention) and polypeptide human endothelin ET1 as positive control were dissolved in Stim B to be at a concentration of 2×, and 7 µL was added to the test cells, while 7 µL of PBS solution was added to the cells in the negative control wells. Human endothelin ET1 (ET1: […] (C1-C15,C3-C11)) set forth in SEQ ID No. 85 was used as the positive control polypeptide. The plate was sealed and incubated at 37°C for 1 h in a cell culture incubator. Detection wells, positive control wells, and PBS control wells were each added with 3 µL of IP1 d2 working solution and 3 µL of IP1 Tb cryptotate Antibody working solution. The plate was sealed and incubated in the dark at room temperature (25°C±5°C) for 1 h. The plate seal was removed, and the […] at 665 nm and 620 nm was measured with an ID5 microplate reader. The ratio of the acceptor emission signal to the donor emission signal, i.e., the value of (signal at 665 nm/signal at 620 nm)×10^4, was calculated for each well. With F3 representing the average value of values of signal at 665 nm/signal at 620 nm determined for the test sample at a specific concentration, F5 representing the average value of values of signal at 665 nm/signal at 620 nm determined for the positive control human endothelin ET1 at the same concentration, and T3 representing the average value of values of signal at 665 nm/signal at 620 nm determined for the PBS negative control, the percentage of activity of the test polypeptide sample relative to the positive control sample ET1 = (F3-T3)×100/(F5-T3) (see Table 6). hETA sequence (NCBI accession number L06622.1).

What does the source list for `CC[C@H](C)[C@H](NC(=O)[C@H](CC(=O)O)NC(=O)[C@H](CC(C)C)NC(=O)[C@H](Cc1c[nH]cn1)NC(=O)[C@H](C)NC(=O)[C@H](Cc1ccccc1)NC(=O)[C@H](Cc1ccc(O)cc1)NC(=O)[C@@H]1CSSC[C@H](NC(=O)[C@H](CCC(=O)O)NC(=O)[C@H](CC(=O)O)NC(=O)CCC(=O)O)C(=O)N[C@@H](CCC(=O)O)C(=O)N[C@@H](CCC(=O)O)C(=O)N1)C(=O)N[C@H](C(=O)N[C@@H](Cc1c[nH]c2ccccc12)C(=O)O)[C@@H](C)CC` [BX-56] (Suc-DECEECYFAHLDIIW-OH; disulfide 3-6)?
half-life [1]: 8.9 min; AUClast 0-30 min [1]: 1376 ng·h/mL

For `CC[C@H](C)[C@H](NC(=O)[C@H](CC(=O)O)NC(=O)[C@H](CCCCN)NC(=O)[C@H](Cc1c[nH]cn1)NC(=O)[C@H](C)NC(=O)[C@H](Cc1ccccc1)NC(=O)[C@H](Cc1ccc(O)cc1)NC(=O)[C@@H](NC(=O)[C@H](C)NC(=O)[C@H](CCC(=O)O)NC(=O)[C@H](CCC(=O)O)NC(=O)[C@H](CC(=O)O)NC(=O)/C=C/C(=O)O)C(C)C)C(=O)N[C@H](C(=O)N[C@@H](Cc1c[nH]c2ccccc12)C(=O)O)[C@@H](C)CC` [F-BX-5] (Fumaroyl-DEEAVYFAHKDIIW-OH), which half-life [1] is on record?
Its half-life is under 3 min.

And the “AUClast 0-30 min” value [1]?
Its value is 127 ng·h/mL.

What does the source list for “Fum-D cyclo(EEAK)YFAHK(-γE-AEEA-AEEA-ODDA)DVIW [BX-100]”?
hETBR agonist activity, percentage of activity relative to IRL1620 (human ETB receptor): 15.03%@100nM; hETBR agonist activity, percentage of activity relative to IRL1620 (human ETB receptor; @10nM): 18.79%@10nM; hETAR agonist activity, percentage of activity relative to ET1 (human ETA receptor): 9.52%@100µM; hETAR agonist activity, percentage of activity relative to ET1 (human ETA receptor; @10µM): -39.09%@10µM

What does the source list for “Fum-D cyclo(EEAK)YFAHLD(2-Abu)IW [BX-64]”?
hETBR agonist activity, percentage of activity relative to IRL1620 (human ETB receptor): 132.16%@100nM; hETBR agonist activity, percentage of activity relative to IRL1620 (human ETB receptor; @10nM): 79.92%@10nM; hETAR agonist activity, percentage of activity relative to ET1 (human ETA receptor): 6.41%@100µM; hETAR agonist activity, percentage of activity relative to ET1 (human ETA receptor; @10µM): -13.52%@10µM

Which “hETBR agonist activity, percentage of activity relative to IRL1620” value (human ETB receptor) does the source give for “Fum-DEE cyclo(EVYFK)HKD(2-Abu)IW [BX-62]” here?
Its value is 129.39%@100nM.

And the “hETBR agonist activity, percentage of activity relative to IRL1620” value (human ETB receptor; @10nM)?
The value was 99.31%@10nM.

And the “hETAR agonist activity, percentage of activity relative to ET1” value (human ETA receptor; @10nM)?
The value was -17.37%@10nM.

What about the “hETAR agonist activity, percentage of activity relative to ET1” value (human ETA receptor; @100nM) of the same compound?
The value was -19.09%@100nM.

For “Fum-DEEK(-γE-AEEA-AEEA-ODDA)VYFAHLDIIW (Fum-DEEK with lipidated linker N-terminal) [BX-66]”, which “hETBR agonist activity, percentage of activity relative to IRL1620” value (human ETB receptor) is on record?
Its value is 60.51%@100nM.

What about the “hETBR agonist activity, percentage of activity relative to IRL1620” value (human ETB receptor; @10nM) of the same compound?
Its value is 7.67%@10nM.

And the “hETAR agonist activity, percentage of activity relative to ET1” value (human ETA receptor)?
The value was -0.94%@100µM.

And the “hETAR agonist activity, percentage of activity relative to ET1” value (human ETA receptor; @10µM)?
Its value is 13.13%@10µM.

Which results are given for “Suc-D cyclo(EEAK)YFAHK(-γE-AEEA-AEEA-ODDA)DIIW [BX-77]”?
hETBR agonist activity, percentage of activity relative to IRL1620 (human ETB receptor): 4.69%@100nM; hETBR agonist activity, percentage of activity relative to IRL1620 (human ETB receptor; @10nM): -16.59%@10nM; hETAR agonist activity, percentage of activity relative to ET1 (human ETA receptor): -6.32%@100µM; hETAR agonist activity, percentage of activity relative to ET1 (human ETA receptor; @10µM): -29.53%@10µM

For “Suc-D cyclo(EEAK)YFAHK(-γE-AEEA-AEEA-ODDA)DVIW [BX-79]”, which “hETBR agonist activity, percentage of activity relative to IRL1620” value (human ETB receptor) is on record?
The value was 19.85%@100nM.

And the “hETBR agonist activity, percentage of activity relative to IRL1620” value (human ETB receptor; @10nM)?
Its value is 2.13%@10nM.

What about the “hETAR agonist activity, percentage of activity relative to ET1” value (human ETA receptor) of the same compound?
The value was -12.17%@100µM.

What about the “hETAR agonist activity, percentage of activity relative to ET1” value (human ETA receptor; @10µM) of the same compound?
Its value is -46.08%@10µM.

Which “hETBR agonist activity, percentage of activity relative to IRL1620” value (human ETB receptor) does the source give for “Suc-D cyclo(EEAK)YFAHLD(2-Abu)IW [BX-63]” here?
The value was 122.93%@100nM.

What about the “hETBR agonist activity, percentage of activity relative to IRL1620” value (human ETB receptor; @10nM) of the same compound?
Its value is 90.08%@10nM.

What about the “hETAR agonist activity, percentage of activity relative to ET1” value (human ETA receptor) of the same compound?
The value was 4.43%@100µM.

And the “hETAR agonist activity, percentage of activity relative to ET1” value (human ETA receptor; @10µM)?
The value was -15.24%@10µM.

Which “hETBR agonist activity, percentage of activity relative to IRL1620” value (human ETB receptor) does the source give for “Suc-DEEAVYFAHK(-γE-AEEA-AEEA-ODDA)DVIW (Suc-DEEAVYFAHK([γGlu-AEEA-AEEA-C18 diacid])DVIW) [BX-78]” here?
The value was 23.41%@100nM.

What about the “hETBR agonist activity, percentage of activity relative to IRL1620” value (human ETB receptor; @10nM) of the same compound?
The value was -14.2%@10nM.

And the “hETAR agonist activity, percentage of activity relative to ET1” value (human ETA receptor)?
Its value is -23.02%@100µM.

What about the “hETAR agonist activity, percentage of activity relative to ET1” value (human ETA receptor; @10µM) of the same compound?
Its value is -6.06%@10µM.
